Measured values published in US10456407B2, “Combination therapy for treating cancer” (Epizyme, Inc., priority 2015, dated 2019).
Read-outs that look alike come from different tables or passages of the source.

Assays:
SU-DHL10 cells [1] = test: RT2 Glucocorticoid signaling PCR array, SU-DHL10 (SUDHL10) cell line (Table 4d); assay type: cell-based; conditions: SUDHL10, 4 days, vs DMSO
SMARCB1 protein levels = test: SMARCB1 (INI1) western blot in lymphoma cells; assay type: cell-based; conditions: single agent treatment
Source text: Glucocorticoid bound GR molecules move to the nucleus and can act as either transcriptional activator or repressor, depending on the cellular environment. […] Accessibility to GR binding sites can further be enhanced by ATP-dependent chromatin remodeling, and the SWI/SNF complex plays a key role in this activity. Not wishing to be bound by a particular theory or a specific mechanism of action, it is conceivable that aberrant chromatin repression, induced by EZH2 mediated hypertrimethylation of H3K27, can block some of the otherwise accessible GR binding sites, interfering with normal GR mediated gene induction or repression.

WSU-DLCL2 cells = tested on: WSU-DLCL2 cells
Method: (§1) After 3 days of co-treatment, cell viability was measured via ATP content using CellTiter-Glo®
(§2) Synergy quantification is performed using the Chou-Talalay method^3 for drug combination. The Combination Index (CI) equation offers a quantitative definition for additivity (CI=1), synergism (CI<1), and antagonism (CI>1). This equation used Fa values from a constant ratio of drug combination to determine CI values. […] These Fa-CI plots are generated using the Calcusyn software.
(§3) After 3 days of co-treatment (5 days for Toledo assays), cell viability was measured via ATP content using CellTiter-Glo® (Promega) and luminescence was detected using a SpectraMax M5 microplate reader (Molecular Devices).
as §2, with “Chou-Talalay method” for “Chou-Talalay method^3”, “drug combination (Ref 1).” for “drug combination.”, “used fractional effect (Fa)” for “used Fa”, “Calcusyn for Windows software (Ref2).” for “Calcusyn software.”
(§4) Dose responses were plotted using Graphpad Prism and either 50% or 60% inhibitory concentrations were interpolated from the dose response curves.

DOHH2 cells = conditions: DOHH2 (WT EZH2 GCB); drug combined with Compound 44
Method: as §1, §2, §3
as §2, with “Chou-Talalay method” for “Chou-Talalay method^3”, “drug combination (Ref 1).” for “drug combination.”, “used fractional effect (Fa)” for “used Fa”, “Calcusyn for Windows software (Ref2).” for “Calcusyn software.”
as §4

SU-DHL10 cells [2] = tested on: SU-DHL10 cells
Method: as §1, §2, §3
as §2, with “Chou-Talalay method” for “Chou-Talalay method^3”, “drug combination (Ref 1).” for “drug combination.”, “used fractional effect (Fa)” for “used Fa”, “Calcusyn for Windows software (Ref2).” for “Calcusyn software.”
as §4

Toledo cells = conditions: Toledo (WT EZH2 ABC); drug combined with Compound 44
Method: as §1, §2, §3
as §2, with “Chou-Talalay method” for “Chou-Talalay method^3”, “drug combination (Ref 1).” for “drug combination.”, “used fractional effect (Fa)” for “used Fa”, “Calcusyn for Windows software (Ref2).” for “Calcusyn software.”
as §4

H3K27 acetylation = conditions: WSU-DLCL2, OCI-LY19, RL cells; 4 days
H3K27me3 = conditions: 4 days
Method: Histones were extracted from tumor samples as described above. […] The plates were sealed and incubated overnight at 4° C. The following day, plates were washed 3× with 300 ul/well PBST (PBS+0.05% Tween 20; 10×PBST, KPL #51-14-02) on a Bio Tek plate washer. Plates were blocked with 300 ul/well of diluent (PBS+2% BSA+0.05% Tween 20), incubated at RT for 2 hours, and washed 3× with PBST. All antibodies were diluted in diluent. […] Plates were incubated for 90 min at RT and washed 3× with PBST. […] Plates were washed 4× with PBST. For detection, 100 ul/well of TMB substrate (BioFx Laboratories, #TMBS) was added and plates incubated in the dark at RT for 5 min. Reaction was stopped with 100 ul/well IN H2SO4 Absorbance at 450 nm was read on SpectaMax M5 Microplate reader.

CCN(c1cc(-c2ccc(CN3CCOCC3)cc2)cc(C(=O)NCc2c(C)cc(C)[nH]c2=O)c1C)C1CCOCC1 [Compound 44]
AFF1 ΔΔCT (SU-DHL10 cells [1]): 0.650
AMPD3 ΔΔCT (SU-DHL10 cells [1]): −0.556
ANGPTL4 ΔΔCT (SU-DHL10 cells [1]): 0.615
ANXA4 ΔΔCT (SU-DHL10 cells [1]): −2.475
BCL6 ΔΔCT (SU-DHL10 cells [1]): 0.640
CEBPB ΔΔCT (SU-DHL10 cells [1]): 3.019
CREB1 ΔΔCT (SU-DHL10 cells [1]): −0.051
CREB3L4 ΔΔCT (SU-DHL10 cells [1]): 0.806
CREB3 ΔΔCT (SU-DHL10 cells [1]): 0.421
CYB561 ΔΔCT (SU-DHL10 cells [1]): −2.399
DUSP1 ΔΔCT (SU-DHL10 cells [1]): 1.099
EHD3 ΔΔCT (SU-DHL10 cells [1]): −0.855
FK8PS ΔΔCT (SU-DHL10 cells [1]): 0.042
FOSL2 ΔΔCT (SU-DHL10 cells [1]): −0.063
GDPD1 ΔΔCT (SU-DHL10 cells [1]): −1.405
HNRPLL ΔΔCT (SU-DHL10 cells [1]): 0.071
KLF9 ΔΔCT (SU-DHL10 cells [1]): −1.127
KLF13 ΔΔCT (SU-DHL10 cells [1]): −1.636
NFKBIA ΔΔCT (SU-DHL10 cells [1]): 0.602
PDCD7 ΔΔCT (SU-DHL10 cells [1]): 0.802
PDP1 ΔΔCT (SU-DHL10 cells [1]): 0.016
PER1 ΔΔCT (SU-DHL10 cells [1]): 0.780
PIK3R1 ΔΔCT (SU-DHL10 cells [1]): 0.831
PLEKHF1 ΔΔCT (SU-DHL10 cells [1]): 0.469
POU2F1 ΔΔCT (SU-DHL10 cells [1]): 0.006
POU2F2 ΔΔCT (SU-DHL10 cells [1]): 0.424
RA5A3 ΔΔCT (SU-DHL10 cells [1]): 0.385
RGS2 ΔΔCT (SU-DHL10 cells [1]): 0.072
RHOB ΔΔCT (SU-DHL10 cells [1]): −1.475
SESN1 ΔΔCT (SU-DHL10 cells [1]): −1.646
SGK1 ΔΔCT (SU-DHL10 cells [1]): 1.943
SLC10A6 ΔΔCT (SU-DHL10 cells [1]): −0.648
SLC19A2 ΔΔCT (SU-DHL10 cells [1]): −1.413
SLC22A5 ΔΔCT (SU-DHL10 cells [1]): −1.733
SNTA1 ΔΔCT (SU-DHL10 cells [1]): 0.531
SPSB1 ΔΔCT (SU-DHL10 cells [1]): −0.444
STAT5A ΔΔCT (SU-DHL10 cells [1]): 0.384
TBL1XR1 ΔΔCT (SU-DHL10 cells [1]): 0.234
TNFAIP3 ΔΔCT (SU-DHL10 cells [1]): 0.124
TSC22D3 ΔΔCT (SU-DHL10 cells [1]): 2.709
USP2 ΔΔCT (SU-DHL10 cells [1]): 0.070
USPS4 ΔΔCT (SU-DHL10 cells [1]): −0.064
VLDLR ΔΔCT (SU-DHL10 cells [1]): 4.246
ZFP36 ΔΔCT (SU-DHL10 cells [1]): 0.215
ZHX3 ΔΔCT (SU-DHL10 cells [1]): −1.169
ZNF281 ΔΔCT (SU-DHL10 cells [1]): −0.437
SMARCB1 protein levels (SMARCB1 protein levels): no effect

C[C@]12C=CC(=O)C=C1CC[C@@H]1[C@@H]2[C@@H](O)C[C@@]2(C)[C@H]1CC[C@]2(O)C(=O)CO [Prednisolone, prednisolone]
Summary of Combinations with Compound 44: potency enhanced (WSU-DLCL2 cells; WSU-DLCL2 (EZH2 mutant GCB), drug combined with Compound 44): potency enhanced 7x
growth inhibition by the drug by itself (WSU-DLCL2 cells; WSU-DLCL2, single agent): no sensitivity
Summary of Combinations with Compound 44: potency enhanced (DOHH2 cells): potency enhanced 2x
Summary of Combinations with Compound 44: potency enhanced (SU-DHL10 cells [2]; SU-DHL 10 (EZH2 mutant GCB), drug combined with Compound 44): potency enhanced 3x
growth inhibition by the drug by itself (SU-DHL10 cells [2]; SU-DHL10, single agent): no sensitivity
Summary of Combinations with Compound 44 (combination effect) (Toledo cells): no effect
H3K27 acetylation levels (H3K27 acetylation): not globally affected
AFF1 ΔΔCT (SU-DHL10 cells [1]): −0.106
AMPD3 ΔΔCT (SU-DHL10 cells [1]): −0.327
ANGPTL4 ΔΔCT (SU-DHL10 cells [1]): −0.105
ANXA4 ΔΔCT (SU-DHL10 cells [1]): −0.001
ATF4 ΔΔCT (SU-DHL10 cells [1]): 1.570
BCL6 ΔΔCT (SU-DHL10 cells [1]): 1.067
CEBPB ΔΔCT (SU-DHL10 cells [1]): 2.427
CREB1 ΔΔCT (SU-DHL10 cells [1]): 0.028
CREB3L4 ΔΔCT (SU-DHL10 cells [1]): 1.120
CREB3 ΔΔCT (SU-DHL10 cells [1]): −0.098
CYB561 ΔΔCT (SU-DHL10 cells [1]): 0.164
DUSP1 ΔΔCT (SU-DHL10 cells [1]): −0.719
EHD3 ΔΔCT (SU-DHL10 cells [1]): −0.272
FK8PS ΔΔCT (SU-DHL10 cells [1]): −1.599
FOSL2 ΔΔCT (SU-DHL10 cells [1]): −1.511
GDPD1 ΔΔCT (SU-DHL10 cells [1]): −0.938
GOT1 ΔΔCT (SU-DHL10 cells [1]): 0.781
HNRPLL ΔΔCT (SU-DHL10 cells [1]): 0.492
KLF9 ΔΔCT (SU-DHL10 cells [1]): −1.904
KLF13 ΔΔCT (SU-DHL10 cells [1]): −2.191
MT2A ΔΔCT (SU-DHL10 cells [1]): 1.837
NFKBIA ΔΔCT (SU-DHL10 cells [1]): 0.069
PDCD7 ΔΔCT (SU-DHL10 cells [1]): 0.428
PDP1 ΔΔCT (SU-DHL10 cells [1]): 0.512
PER1 ΔΔCT (SU-DHL10 cells [1]): −0.675
PIK3R1 ΔΔCT (SU-DHL10 cells [1]): −0.040
PLEKHF1 ΔΔCT (SU-DHL10 cells [1]): −0.326
POU2F1 ΔΔCT (SU-DHL10 cells [1]): −0.060
POU2F2 ΔΔCT (SU-DHL10 cells [1]): −2.104
RA5A3 ΔΔCT (SU-DHL10 cells [1]): 0.050
RGS2 ΔΔCT (SU-DHL10 cells [1]): 1.368
RHOB ΔΔCT (SU-DHL10 cells [1]): 0.157
SESN1 ΔΔCT (SU-DHL10 cells [1]): −3.413
SGK1 ΔΔCT (SU-DHL10 cells [1]): 0.975
SLC10A6 ΔΔCT (SU-DHL10 cells [1]): −1.545
SLC19A2 ΔΔCT (SU-DHL10 cells [1]): 1.693
SLC22A5 ΔΔCT (SU-DHL10 cells [1]): 1.923
SNTA1 ΔΔCT (SU-DHL10 cells [1]): −0.066
SPSB1 ΔΔCT (SU-DHL10 cells [1]): −0.629
STAT5A ΔΔCT (SU-DHL10 cells [1]): 0.381
TBL1XR1 ΔΔCT (SU-DHL10 cells [1]): 0.105
TNFAIP3 ΔΔCT (SU-DHL10 cells [1]): 0.950
TSC22D3 ΔΔCT (SU-DHL10 cells [1]): −1.509
USP2 ΔΔCT (SU-DHL10 cells [1]): −0.292
USPS4 ΔΔCT (SU-DHL10 cells [1]): 0.041
VLDLR ΔΔCT (SU-DHL10 cells [1]): 4.597
ZFP36 ΔΔCT (SU-DHL10 cells [1]): −0.420
ZHX3 ΔΔCT (SU-DHL10 cells [1]): 0.027
ZNF281 ΔΔCT (SU-DHL10 cells [1]): −0.465
effect on H3K27 trimethylation (H3K27me3) (H3K27me3; OCI-LY19 cells, at higher doses): modest increase
effect on H3K27 trimethylation (H3K27me3) (H3K27me3; RL cells): did not have any effect
effect on H3K27 trimethylation (H3K27me3) (H3K27me3; WSU-DLCL2 cells): did not have any effect
SMARCB1 protein levels (SMARCB1 protein levels): no effect
